Data from patent US20260234150A1, “COMPOUND FOR INHIBITING NLRP3, PREPARATION METHOD, AND USE” (DOVETREE MEDICINES UNUS, INC., priority 2023, published 2026).

Target: T1, His6-Flag-TEV-NLRP3 (134-1036) (Homo sapiens, UniProt Q96P20)
T1 construct: fused on or other part: N-terminal His6 tag, Flag tag and TEV cleavage site
Test: NLRP3 fluorescence polarization (FP) binding assay, competition with probe NP3-301
Settings: competition with NP3-301 for binding to NLRP3 (134-1036), 30 nM protein
Procedure: This experiment uses fluorescence polarization technology to detect and evaluate the binding assay.
The fluorescent probe used in this assay is the compound NP3-301 in the Journal of Molecular Biology (2021) 433, 167309, which was synthesized with reference to this literature.
His6-Flag-TEV-NLRP3 (134-1036) protein (SEQ NO. 1) was purchased from Kaihuiruizhi Biotech (Shanghai) Co., Ltd. (ChemPartner), and was customed for expression.
Prepare 1× assay buffer: 50 mM Hepes, pH 7.4, 150 mM NaCl, 2.5 mM MgCl2, 0.005% Tween-20, 1 mM TCEP, 100 μM ATP.
First, 2.5 μL of 4× compound solution was added to a black shallow 384-well plate (Greiner, 784076), the shallow well plate was sealed, and centrifuged at 1000 rpm for 1 min; then 2× NLPR3 protein solution (final concentration of 30 nM) was added, the shallow well plate was sealed, centrifuged at 1000 rpm for 1 min, and incubated at room temperature for 60 min. Finally, 2.5 μL of 4× NP3-301 (final concentration of 0.5 nM) was added, the shallow well plate was sealed, centrifuged at 1000 rpm for 1 min, and incubated at room temperature for 30 min. Envision was used to read the fluorescence polarization values of λex=485+20 nm and kem=535+25 nm. GraphPad Prism 9.5.0 was used to analyze the data, and the IC50 value of the competition between the compound and NP3-301 for binding to His6-Flag-TEV-NLRP3 (134-1036) was fitted by four-parameter logistic. The compounds of the present disclosure have good NLRP3 binding activity, and the test results of some representative compounds are shown in Table 1.

T1 sequence (Q96P20 134-1036 limits assumed): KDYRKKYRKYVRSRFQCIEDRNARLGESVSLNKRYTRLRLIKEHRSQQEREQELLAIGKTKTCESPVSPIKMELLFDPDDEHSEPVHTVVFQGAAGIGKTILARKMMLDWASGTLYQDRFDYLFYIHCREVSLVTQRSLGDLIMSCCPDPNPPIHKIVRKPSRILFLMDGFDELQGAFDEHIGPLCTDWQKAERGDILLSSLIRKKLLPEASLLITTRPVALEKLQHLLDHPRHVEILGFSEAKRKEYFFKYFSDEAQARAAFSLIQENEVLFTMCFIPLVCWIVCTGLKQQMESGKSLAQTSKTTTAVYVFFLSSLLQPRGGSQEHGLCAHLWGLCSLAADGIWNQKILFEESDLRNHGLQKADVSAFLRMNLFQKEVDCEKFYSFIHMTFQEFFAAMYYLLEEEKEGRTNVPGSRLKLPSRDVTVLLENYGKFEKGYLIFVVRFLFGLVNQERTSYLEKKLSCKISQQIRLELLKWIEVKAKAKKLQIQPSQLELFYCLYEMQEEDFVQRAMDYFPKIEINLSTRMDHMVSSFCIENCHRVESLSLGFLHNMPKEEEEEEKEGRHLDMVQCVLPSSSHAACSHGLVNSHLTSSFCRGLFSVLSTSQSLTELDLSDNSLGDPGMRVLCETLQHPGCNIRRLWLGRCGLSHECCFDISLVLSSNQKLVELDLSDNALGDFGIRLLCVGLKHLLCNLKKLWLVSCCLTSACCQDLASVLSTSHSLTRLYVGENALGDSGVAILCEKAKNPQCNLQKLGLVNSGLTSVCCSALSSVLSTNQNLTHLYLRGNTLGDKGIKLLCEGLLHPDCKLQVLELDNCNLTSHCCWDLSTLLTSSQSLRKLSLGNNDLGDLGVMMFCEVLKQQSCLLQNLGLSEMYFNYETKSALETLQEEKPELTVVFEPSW

Row | SMILES | IC50
1 | Cc1cc(C(F)(F)F)cc(O)c1-c1ccc2[nH]c(N)nc2n1 [Compound 1] | 100 to 500 nM
2 | Cc1cc(C(F)(F)F)cc(O)c1-c1ccc2[nH]c(CC(=O)O)nc2n1 [Compound 4] | 500 to 1000 nM
3 | Cc1cc(C(F)(F)F)cc(O)c1-c1ccc2ccc(N)nc2n1 [Compound 7] | 100 to 500 nM
4 | CCN1CCC[C@H](n2ccc3cc(-c4c(C)cc(C(F)(F)F)cc4O)nnc32)C1 [Compound 11-b] | 100 to 500 nM
5 | Cc1cc(C(F)(F)F)cc(O)c1-c1ccc2nc(N)nn2n1 [Compound 13] | 500 to 1000 nM
6 | Cc1cc(C(F)(F)F)cc(O)c1-c1ccc2oc(N[C@@H]3COCC[C@H]3O)nc2n1 [Compound 81] | 100 to 500 nM
7 | Cc1cc(C(F)(F)F)cc(O)c1-c1ccc2oc(NC3CC3)nc2n1 [Compound 82] | ≤ 100 nM
8 | Cc1cc(C(F)(F)F)cc(O)c1-c1cc2ccn(Cc3cc(C#N)ccn3)c2nn1 [Compound 121] | > 1000 nM
9 | Cc1cc(C(F)(F)F)cc(O)c1-c1cc2ccn(C3CCS(=O)(=O)C3)c2nn1 (centres unmarked) [Compound 123] | 500 to 1000 nM
10 | Cc1cc(C(F)(F)F)cc(O)c1-c1cc2ccn(C3CCS(=O)(=O)CC3)c2nn1 [Compound 124] | 100 to 500 nM
11 | Cc1cc(C(F)(F)F)cc(O)c1-c1cc2ccn(C3CS(=O)(=O)C3)c2nn1 [Compound 125] | 100 to 500 nM
12 | CC(=O)N1CCOC[C@H]1CNc1nc2nc(-c3c(C)cc(C)cc3O)ccc2o1 [Compound 254] | 100 to 500 nM
13 | COc1cc(C)c(-c2ccc3oc(NC[C@@H]4COCCN4C(C)=O)nc3n2)c(O)c1 [Compound 255] | 500 to 1000 nM
14 | Cc1cc(C(F)(F)F)cc(O)c1-c1ccc2oc(NC[C@@H]3COCCN3S(C)(=O)=O)nc2n1 [Compound 258] | ≤ 100 nM
15 | CCS(=O)(=O)N1CCOC[C@H]1CNc1nc2nc(-c3c(C)cc(C(F)(F)F)cc3O)ccc2o1 [Compound 259] | ≤ 100 nM
16 | CC(=O)N1CC[C@@H](CNc2nc3nc(-c4c(C)cc(C(F)(F)F)cc4O)ccc3o2)C1 [Compound 271] | 100 to 500 nM
17 | CC(=O)N1C[C@@H](O)[C@H](Nc2nc3nc(-c4c(C)cc(C(F)(F)F)cc4O)ccc3o2)C1 [Compound 272] | ≤ 100 nM
18 | CC(=O)N1CC[C@H](Nc2nc3nc(-c4c(C)cc(C(F)(F)F)cc4O)ccc3o2)C1 [Compound 273] | 100 to 500 nM
19 | Cc1cc(C(F)(F)F)cc(O)c1-c1ccc2oc(N3CC4(COC4)C3)nc2n1 [Compound 357] | 100 to 500 nM
20 | CCN1CC2(CCN(c3nc4nc(-c5c(C)cc(C(F)(F)F)cc5O)ccc4o3)CC2)C1 [Compound 358] | 100 to 500 nM
21 | CC(=O)N1CC2(CCN(c3nc4nc(-c5c(C)cc(C(F)(F)F)cc5O)ccc4o3)CC2)C1 [Compound 359] | ≤ 100 nM
22 | CC(=O)N1C[C@@H]2CN(c3nc4nc(-c5c(C)cc(C(F)(F)F)cc5O)ccc4o3)C[C@@H]2C1 [Compound 360] | ≤ 100 nM
23 | Cc1cc(C(F)(F)F)cc(O)c1-c1ccc2oc(N3CCC4(CCOC4)C3)nc2n1 (centres unmarked) [Compound 361] | 100 to 500 nM

Row | SMILES | IC50
24 | Cc1cc(C(F)(F)F)cc(O)c1-c1ccc2oc(N3CCC4(CC3)COC4)nc2n1 [Compound 362] | ≤ 100 nM
25 | Cc1cc(C(F)(F)F)cc(O)c1-c1ccc2oc(N3CCC4(CCO4)CC3)nc2n1 [Compound 363] | ≤ 100 nM
26 | CC(=O)N1CCC2(CCN(c3nc4nc(-c5c(C)cc(C(F)(F)F)cc5O)ccc4o3)C2)C1 (centres unmarked) [Compound 364] | ≤ 100 nM
27 | CC(=O)N1CCC2(CC1)CN(c1nc3nc(-c4c(C)cc(C(F)(F)F)cc4O)ccc3o1)CCO2 [Compound 365] | 100 to 500 nM
28 | CC(=O)N1CCC2(CC1)CCN(c1nc3nc(-c4c(C)cc(C(F)(F)F)cc4O)ccc3o1)CC2 [Compound 366] | 100 to 500 nM
29 | CCN1CCC2(CC1)CCN(c1nc3nc(-c4c(C)cc(C(F)(F)F)cc4O)ccc3o1)CC2 [Compound 367] | 100 to 500 nM
30 | Cc1cc(C(F)(F)F)cc(O)c1-c1ccc2oc(N3CCC4(CCCCO4)CC3)nc2n1 [Compound 368] | ≤ 100 nM
31 | CC(=O)N1CCOC2(CCN(c3nc4nc(-c5c(C)cc(C(F)(F)F)cc5O)ccc4o3)CC2)C1 [Compound 369] | 100 to 500 nM
32 | CC(=O)N1CCCC2(CCN(c3nc4nc(-c5c(C)cc(C(F)(F)F)cc5O)ccc4o3)CC2)C1 [Compound 370] | 500 to 1000 nM
33 | Cc1cc(C(F)(F)F)cc(O)c1-c1ccc2oc(N3CCO[C@@H](C)C3)nc2n1 [Compound 372] | ≤ 100 nM
34 | Cc1cc(C(F)(F)F)cc(O)c1-c1ccc2oc(N3CCOC[C@@H]3C)nc2n1 [Compound 373] | 100 to 500 nM
35 | Cc1cc(C(F)(F)F)cc(O)c1-c1ccc2oc(N3CCO[C@H](C)C3)nc2n1 [Compound 374] | ≤ 100 nM
36 | Cc1cc(C)c(-c2ccc3oc(N4CCOCC4)nc3n2)c(O)c1 [Compound 375] | ≤ 100 nM
37 | Cc1cc(C(F)(F)F)cc(O)c1-c1ccc2oc(N3CCCOCC3)nc2n1 [Compound 377] | ≤ 100 nM
38 | Cc1cc(C(F)(F)F)cc(O)c1-c1ccc2oc(N3CC4CC(C3)O4)nc2n1 [Compound 378] | 100 to 500 nM
39 | Cc1cc(C(F)(F)F)cc(O)c1-c1ccc2oc(N3C[C@H]4C[C@@H]3CO4)nc2n1 [Compound 379] | 100 to 500 nM
40 | Cc1cc(C(F)(F)F)cc(O)c1-c1ccc2oc(N3C[C@@H]4C[C@H]3CO4)nc2n1 [Compound 380] | 100 to 500 nM
41 | Cc1cc(C(F)(F)F)cc(O)c1-c1ccc2oc(C3CCCNC3)nc2n1 (centres unmarked) [Compound 382] | 100 to 500 nM
42 | Cc1cc(C)c(-c2ccc3oc(N4CCS(=O)(=O)CC4)nc3n2)c(O)c1 [Compound 385] | 100 to 500 nM
43 | Cc1cc(C(F)(F)F)cc(O)c1-c1ccc2oc(N3CCS(=O)(=O)c4ccccc43)nc2n1 [Compound 386] | ≤ 100 nM
44 | CC(=O)N1CCN(c2nc3nc(-c4c(C)cc(C(F)(F)F)cc4O)ccc3o2)CC1 [Compound 389] | ≤ 100 nM
45 | CCS(=O)(=O)N1CCN(c2nc3nc(-c4c(C)cc(C)cc4O)ccc3o2)CC1 [Compound 391] | ≤ 100 nM
46 | CCS(=O)(=O)N1CCN(c2nc3nc(-c4c(C)cc(C(F)(F)F)cc4O)ccc3o2)[C@@H](C)C1 [Compound 393] | 100 to 500 nM

Row | SMILES | IC50
47 | Cc1cc(C(F)(F)F)cc(O)c1-c1ccc2oc(N3CC4CC(C3)N4S(C)(=O)=O)nc2n1 [Compound 395] | ≤ 100 nM
48 | Cc1cc(C(F)(F)F)cc(O)c1-c1ccc2oc(N3CCN(C)C3=O)nc2n1 [Compound 396] | ≤ 100 nM
49 | CCN1C[C@H](Nc2nc3nc(-c4c(C)cc(C(F)(F)F)cc4O)ccc3o2)CC(F)(F)C1 [Compound 398] | ≤ 100 nM
50 | Cc1cc(C(F)(F)F)cc(O)c1-c1ccc2oc(N[C@@H]3CCCN(C4COC4)C3)nc2n1 [Compound 401] | ≤ 100 nM
51 | Cc1cc(C(F)(F)F)cc(O)c1-c1ccc2oc(N[C@@H]3CCCN(CC#N)C3)nc2n1 [Compound 402] | ≤ 100 nM
52 | Cc1cc(C(F)(F)F)cc(O)c1-c1ccc2oc(N[C@@H]3CCCN(CC(C)(C)O)C3)nc2n1 [Compound 403] | ≤ 100 nM
53 | Cc1cc(C(F)(F)F)cc(O)c1-c1ccc2oc(N[C@@H]3CCCN(C(=O)C4CC4)C3)nc2n1 [Compound 405] | ≤ 100 nM
54 | Cc1cc(C(F)(F)F)cc(O)c1-c1ccc2oc(N[C@@H]3CCCN(S(=O)(=O)C4CC4)C3)nc2n1 [Compound 406] | ≤ 100 nM
55 | CC(=O)N1CCC[C@@H](Nc2nc3nc(-c4c(C)cc(C(F)(F)F)cc4O)ccc3o2)C1 [Compound 407] | ≤ 100 nM
56 | Cc1cc(C(F)(F)F)cc(O)c1-c1ccc2oc(N[C@@H]3CCCN(S(C)(=O)=O)C3)nc2n1 [Compound 408] | ≤ 100 nM
57 | Cc1cc(C(F)(F)F)cc(O)c1-c1ccc2oc(NC3CCN(S(C)(=O)=O)CC3)nc2n1 [Compound 411] | 100 to 500 nM
58 | CC(=O)N1CCC(Nc2nc3nc(-c4c(C)cc(C(F)(F)F)cc4O)ccc3o2)CC1 [Compound 412] | 100 to 500 nM
59 | CC(=O)N1CCOC[C@H]1CNc1nc2ccc(-c3c(C)cc(C(F)(F)F)cc3O)nn2n1 [Compound 419] | 100 to 500 nM
60 | Cc1cc(Cl)cc(O)c1-c1ccc2nc(N3CCOCC3)nn2n1 [Compound 420] | ≤ 100 nM
61 | Cc1cc(C(F)(F)F)cc(O)c1-c1ccc2nc(NC[C@@H]3COCCN3S(C)(=O)=O)nn2n1 [Compound 421] | 500 to 1000 nM
62 | CC(=O)N1CCOC[C@H]1CNc1nc2c(C)cc(-c3c(C)cc(C(F)(F)F)cc3O)nn2n1 [Compound 425] | 100 to 500 nM
63 | Cc1cc(C(F)(F)F)cc(O)c1-c1ccc2cc(N3CCOC[C@H]3C)nn2n1 [Compound 438] | ≤ 100 nM
64 | CCN1CCC[C@@H](Nc2nc3ccc(-c4c(C)cc(F)cc4O)nn3n2)C1 [Compound 449] | ≤ 100 nM
65 | [2H]C([2H])([2H])C(=O)N1CCOC[C@H]1CNc1nc2nc(-c3c(C)cc(C(F)(F)F)cc3O)ccc2o1 [Compound 450] | ≤ 100 nM
66 | CC(=O)N1CCOC[C@H]1CNc1nc2nc(-c3c(C)cc(Cl)cc3O)cc(C)c2o1 [Compound 452] | ≤ 100 nM
67 | CC(=O)N1CCOC[C@H]1CNc1nc2nc(-c3c(C)cc(C(F)(F)F)cc3O)ccn2n1 [Compound 453] | 500 to 1000 nM
68 | Cc1cc(C(F)(F)F)cc(O)c1-c1ccc2nc(N[C@@H]3CCCN(CCO)C3)nn2n1 [Compound 454] | ≤ 100 nM
